Patent US9682114B2, “Plant extracts of Ptaeroxylon obliquum nand compounds having antimicrobial and antihelminthic activity” (UNIVERSITY OF PRETORIA, priority 2013, dated 2017)
Values after ≈ are worked out from the molar mass of the structure shown. Like-named read-outs stand apart in the source and are kept apart here.

Legend:
[1] = system: bacterial strains (E. coli, E. faecalis, P. aeruginosa, S. aureus, S. typhi); experiment: Antibacterial MIC, summary statements over all bacterial strains tested; assay type: cell-based; conditions: read-out: MIC (bacteria tested, summary)
Protocol: (§1) The serial microplate dilution method developed by Eloff (1998) was used to determine the minimal inhibitory concentration (MIC) of the crude extracts, fractions and isolated compounds from P. obliquum against several bacterial strains. The antimicrobial activity was determined against the bacterial strains Escherichia coli ATTC 27853, Escherichia coli ATTC 6739, Enterococcus faecalis ATCC 29212, Pseudomonas aeruginosa ATCC 25922, Staphylococcus aureus ATCC 6538, Staphylococcus aureus ATCC 29213, Salmonella typhi ATCC 14028.

Trichoderma harzianum = experiment: MIC, plant pathogenic fungi; assay type: cell-based
Protocol: (§2) The microplate dilution method (Eloff, 1998), with slight modification (Masoko et al., 2005) was used to test the antifungal activity of the crude extracts, fractions and isolated compounds from P. obliquum. Clinical isolates of the four opportunistic fungal strains Aspergillus fumigatus, Candida albicans, Crytococcus neoformans and Candida albicans ATCC 10231 were used to test for antifungal activity.
(§3) The antifungal activity of the crude extracts and the five fractions were also tested against 10 plant pathogenic fungi (Aspergillus niger, Aspergillus parasiticus, Colletotrichum gloeosporioides, Fusarium oxysporum, Penicillium digitum, Penicillium expansum, Penicillium italicum, Penicillium janthinellum, Trichoderma harzianum and Rhizoctonia solani).

Aspergillus parasiticus = experiment: MIC, plant pathogenic fungi; assay type: cell-based
Protocol: as §2, §3

Penicillium digitum = experiment: MIC, plant pathogenic fungi; assay type: cell-based
Protocol: as §2, §3

Aspergillus niger = experiment: MIC, plant pathogenic fungi; assay type: cell-based
Protocol: as §2, §3

Penicillium expansum = experiment: MIC, plant pathogenic fungi; assay type: cell-based
Protocol: as §2, §3

Penicillium janthinellum = experiment: MIC, plant pathogenic fungi; assay type: cell-based
Protocol: as §2, §3

Rhizoctonia solani = experiment: MIC, plant pathogenic fungi; assay type: cell-based
Protocol: as §2, §3

Penicillium italicum = experiment: MIC, plant pathogenic fungi; assay type: cell-based
Protocol: as §2, §3

[2] = system: Colletotrichum gloeosporioides; experiment: MIC, plant pathogenic fungi; assay type: cell-based
Protocol: as §2, §3

Fusarium oxysporum = experiment: MIC, plant pathogenic fungi; assay type: cell-based
Protocol: as §2, §3

[3] = system: Haemonchus contortus (egg); experiment: Egg hatch assay (EHA); assay type: cell-based; conditions: egg of Haemonchus contortus; read-out: Antihelminthic activity EC50 (mg/ml) EDA
Protocol: (§4) The extract and isolated compound were tested for activity on Haemonchus contortus.

Mycobacterium aurum = experiment: Serial microplate dilution MIC, mycobacteria; assay type: cell-based; conditions: Mycolicibacterium aurum
[4] = system: Candida albicans standard strain (ATCC 10231) and clinical isolates; experiment: Broth micro-dilution assay, minimal inhibitory concentration (MIC); assay type: cell-based; conditions: for MIC: Candida albicans, read-out: MIC; for Selectivity index (SI): LC50 against mouse fibroblast cells/MIC
in vitro [5] = experiment: in vitro
[6] = system: Candida albicans ATCC 10231; experiment: Microplate dilution MIC, opportunistic fungi (Example 9); assay type: cell-based; conditions: ATCC10231
Text: as §2

Aspergillus fumigatus = experiment: as above; assay type: cell-based
Text: as §2

[7] = system: Candida albicans (clinical isolate); experiment: as above; assay type: cell-based
Text: as §2

Cryptococcus neoformans = experiment: as above; assay type: cell-based
Text: as §2

Mycobacterium smegmatis = experiment: Serial microplate dilution MIC, mycobacteria; assay type: cell-based
in vitro [8] = conditions: mouse, LC50 (cytotoxicity)
Text: (§5) The MTT assay was used to determine the cytotoxicity of dried acetone extracts of H. caffrum (leaves); P. obliquum (leaves); R. melanophloeos (leaves) and S. birrea (stem bark) reconstituted in dimethyl sulphoxide (DMSO) against Mouse fibroblast cells (obtained from the Department of Plant Science, Faculty of Natural and Agricultural Sciences, University of Pretoria, South Africa).
(§6) MTT (yellow) is reduced into a formazan (purple) by viable cells. The colour intensity of the formazan produced, which is directly proportional to the number of viable cells, is measured using a spectrophotometer (Mosmann, 1983; Shai, 2007).
(§7) Cells were maintained in minimal essential medium (MEM) (Highveld Biological, South Africa) supplemented with 0.1% gentamicin (Virbac) and 5% foetal calf serum (Adcock-lngram). […] Dried crude plant extracts (100 mg) were reconstituted in 1 ml of DMSO and serial 10-fold dilutions of each extract were prepared in growth medium. The growth medium on sub-confluent monolayer cells grown overnight in microtitre plates was removed and cells were exposed to 200 μl of the extracts at different concentrations and incubated again at 37° C. for 5 days. Viability of cells was determined using the tetrazolium-based colorimetric assay (MTT assay) described by Mossmann (1983). Before the addition of MTT, the extract-containing medium on the cells was replaced with fresh culture medium to exclude reduction of the tetrazolium compound by plant extracts. The assay is based on mitochondrial dehydrogenase activity which is assessed by the reductive cleavage of the tetrazolium salt MTT [3-(4.5-dimethylthiazolyl)2.5-diphenyltetrazolium bromide] due to the succinic dehydrogenase present in living cells to yield a purple formazan dye. The cells were incubated with 30 μl of 5 mg/ml MTT in phosphate-buffered saline (PBS) for four hours. Thereafter, medium was removed and cells washed with PBS. DMSO (50 μl) was added to the cells and absorbance was measured using a Versamax microplate reader at 570 nm. Berberine chloride (Sigma) was used as a positive control, wells containing only cells acted as the negative control and a solvent control was also included. The percentage cell viability following the addition of varying concentrations of the extracts in relation to controls was calculated. The LC50 values were calculated (using SoftMax Pro4.8 Software) as the concentration of plant extracts resulting in 50 percent reduction of absorbance compared to untreated cells. Tests were carried out in quadruplicate and each experiment was repeated three times.

[9] = system: Haemonchus contortus (larva); experiment: Larval development test (LDT); assay type: cell-based
Protocol: as §4

Mycobacterium bovis = experiment: microbe, parasite or virus in culture; assay type: cell-based
[10] = system: Staphylococcus aureus ATCC 6538; experiment: Serial microplate dilution MIC, bacteria; assay type: cell-based; conditions: ATCC6538
Protocol: as §1

[11] = system: Pseudomonas aeruginosa ATCC 25922; experiment: Serial microplate dilution MIC, bacteria; assay type: cell-based; conditions: ATCC25922
Protocol: as §1

[12] = system: Escherichia coli ATTC 6739; experiment: Serial microplate dilution MIC, bacteria; assay type: cell-based; conditions: ATTC6739
Protocol: as §1

[13] = system: Staphylococcus aureus ATCC 29213; experiment: Serial microplate dilution MIC, bacteria; assay type: cell-based; conditions: ATCC29213
Protocol: as §1

[14] = system: Salmonella typhi ATCC 14028; experiment: Serial microplate dilution MIC, bacteria; assay type: cell-based; conditions: Salmonella enterica
Protocol: as §1

[15] = system: Escherichia coli ATTC 27853; experiment: Serial microplate dilution MIC, bacteria; assay type: cell-based; conditions: ATTC27853
Protocol: as §1

[16] = system: Enterococcus faecalis ATCC 29212; experiment: Serial microplate dilution MIC, bacteria; assay type: cell-based; conditions: ATCC29212
Protocol: as §1

Mycobacterium fortuitum = experiment: Serial microplate dilution MIC, mycobacteria; assay type: cell-based
mouse fibroblast cells = conditions: 5 days
Text: as §5, §6, §7

in vitro [17] = conditions: human

Compound `CC(=O)OCC1=CCc2c(cc(O)c3c(=O)cc(C)oc23)OC1` [Compound 2, 8,11-Dihydro-5-hydroxy-12-hydroxymethyl-2-methyl-4H-pyrano[2,3-g][1]benzoxepin-4-one 12-O-acetate] has an MIC [1] of 31.5 µg/mL (≈ 99.6 µM), an MIC (Trichoderma harzianum) of 16 µg/mL (≈ 50.6 µM) and an MIC (Trichoderma harzianum; T. harzianum, read-out: MIC) of 16 µg/mL (≈ 50.6 µM). It also gave an MIC (Aspergillus parasiticus) of 250 µg/mL (≈ 790 µM), an MIC (Penicillium digitum) of 32 µg/mL (≈ 101 µM) and an MIC (Aspergillus niger) of 32 µg/mL (≈ 101 µM). The MIC (Penicillium expansum) was 32 µg/mL (≈ 101 µM), the MIC (Penicillium janthinellum) was 63 µg/mL (≈ 199 µM) and the MIC (Rhizoctonia solani) was 8 µg/mL (≈ 25.3 µM). The MIC (Rhizoctonia solani; R. solani, read-out: MIC) was 8 µg/mL (≈ 25.3 µM), the MIC (Penicillium italicum) was 125 µg/mL (≈ 395 µM) and the MIC [2] was 32 µg/mL (≈ 101 µM). The MIC (Fusarium oxysporum) was 63 µg/mL (≈ 199 µM), the EC50 [3] was 0.224 ± 0.0286 mg/mL (≈ 707 µM) and the MIC (Mycobacterium aurum) was 125 µg/mL (≈ 395 µM). It also gave an MIC ([4]; 12 h, 12 h incubation, C. albicans 1051255) of over 250 µg/mL, an MIC ([4]; 12 h, 12 h incubation, C. albicans 1051604) of over 250 µg/mL and an MIC ([4]; 12 h, 12 h incubation, C. albicans 1051608) of 8 µg/mL (≈ 25.3 µM). The MIC ([4]; 12 h, 12 h incubation, C. albicans ATCC 10231) was 4 µg/mL (≈ 12.6 µM), the MIC ([4]; 12 h, 12 h incubation, C. albicans M0824) was over 250 µg/mL and the MIC ([4]; 12 h, 12 h incubation, C. albicans M0825) was over 250 µg/mL. The MIC ([4]; 12 h, 12 h incubation, C. albicans M0826) was over 250 µg/mL, the MIC ([4]; 24 h, 24 h incubation, C. albicans 1051255) was over 250 µg/mL and the MIC ([4]; 24 h, 24 h incubation, C. albicans 1051604) was over 250 µg/mL. It also gave an MIC ([4]; 24 h, 24 h incubation, C. albicans 1051608) of 250 µg/mL (≈ 790 µM), an MIC ([4]; 24 h, 24 h incubation, C. albicans ATCC 10231) of 4 µg/mL (≈ 12.6 µM) and an MIC ([4]; 24 h, 24 h incubation, C. albicans M0824) of over 250 µg/mL. The MIC ([4]; 24 h, 24 h incubation, C. albicans M0825) was over 250 µg/mL, the MIC ([4]; 24 h, 24 h incubation, C. albicans M0826) was over 250 µg/mL and the MIC ([4]; C. albicans ATCC 10231, mean value) was 4 µg/mL (≈ 12.6 µM). The “Selectivity index (SI)” value ([4]; C. albicans 1051255) was under 0.029, the “Selectivity index (SI)” value ([4]; C. albicans 1051604) was under 0.029 and the “Selectivity index (SI)” value ([4]; C. albicans 1051608) was 0.029. For the same compound, the “Selectivity index (SI)” value ([4]; C. albicans ATCC 10231) was 1.808, the “Selectivity index (SI)” value ([4]; C. albicans M0824) was under 0.029 and the “Selectivity index (SI)” value ([4]; C. albicans M0825) was under 0.029. For the same compound, the “Selectivity index (SI)” value ([4]; C. albicans M0826) was under 0.029, the “Selectivity index (SI) Average” value ([4]; average over ATCC 10231 and clinical isolates) was 0.283 and the CC50 (in vitro [5]; monkey and human) was over 200 µg/mL. It also gave an MIC [6] of 2 µg/mL (≈ 6.32 µM), an MIC (Aspergillus fumigatus) of 16 µg/mL (≈ 50.6 µM) and an MIC [7] of 62.5 µg/mL (≈ 198 µM). The MIC (Cryptococcus neoformans) was 8 µg/mL (≈ 25.3 µM), the MIC (Mycobacterium smegmatis; Mycobacterium smegmatis) was 16 µg/mL (≈ 50.6 µM) and the MIC (Mycobacterium smegmatis; Mycolicibacterium smegmatis, M. smegmatis, read-out: MIC) was 16 µg/mL (≈ 50.6 µM). It also gave a CC50 at 5 days (in vitro [8]) of 7.23 µg/mL (≈ 22.9 µM), an EC50 ([9]; Haemonchus contortus larvae, read-out: EC50 against larvae) of 0.0956 mg/mL (≈ 302 µM) and an EC50 ([9]; larva of Haemonchus contortus, read-out: Antihelminthic activity EC50 (mg/ml) LDT) of 0.0956 ± 0.002 mg/mL (≈ 302 µM). It also gave an MIC (Mycobacterium bovis; Mycobacterium bovis) of 31.5 µg/mL (≈ 99.6 µM), an MIC (Mycobacterium bovis; Mycobacterium tuberculosis variant bovis) of 31.5 µg/mL (≈ 99.6 µM) and an MIC [10] of 31.5 µg/mL (≈ 99.6 µM). For the same compound, the MIC [11] was 31.5 µg/mL (≈ 99.6 µM), the MIC [12] was 80 µg/mL (≈ 253 µM) and the MIC [13] was 31.5 µg/mL (≈ 99.6 µM). The MIC [14] was 31.5 µg/mL (≈ 99.6 µM), the MIC [15] was 80 µg/mL (≈ 253 µM) and the MIC [16] was over 250 µg/mL. The MIC (Mycobacterium fortuitum; Mycobacterium fortuitum) was 8 µg/mL (≈ 25.3 µM), the MIC (Mycobacterium fortuitum; Mycolicibacterium fortuitum, M. fortuitum, read-out: MIC) was 8 µg/mL (≈ 25.3 µM) and the “LC50 (cytotoxicity)” value (mouse fibroblast cells) was 7.23 µg/mL (≈ 22.9 µM).

Compound `COc1cccc2c1C(=O)c1c(O)c3c(c(O)c1C2=O)C[C@@](O)(C(=O)CO)C[C@@H]3O[C@H]1C[C@H](N)[C@H](O)[C@H](C)O1` [doxorubicin, reference compound] has a CC50 (in vitro [17]) of 116 ± 17.4 nM and a CC50 (in vitro [5]; monkey) of 2510 ± 203 nM.
